Measured values as given in patent US7541020B2, “Aminoalkyl glucosaminide phosphate compounds and their use as adjuvants and immunoeffectors” (priority 1997, dated 2009).
Several values for one entry are separate records, joined by “and”; a condition that tells them apart may be missing. Equal entries are not always repeated. Where two headings read alike, the source gives them in different places.

How the values were obtained:
influenza A/HK/68 [1] = conditions: mouse, in vivo
influenza A/HK/68 [2] = conditions: mouse, in vivo; remark: listed apart in the source
[3] = test system: hepatitis B surface antigen (HBsAg); test: Anti-HBsAg antibody titer with AGP-SE (ELISA plates coated with HBsAg or p72 peptide); conditions: sera day 28 post 2°, 25 μg AGP-SE; for Anti-HBsAg Titer^−1 HBsAg IgG1 / Anti-HBsAg Titer^−1 HBsAg IgG2a: ELISA plates coated with HBsAg; for Anti-HBsAg Titer^−1 p72-Peptide IgG1 / Anti-HBsAg Titer^−1 p72-Peptide IgG2a: ELISA plates coated with p72 peptide
[4] = test system: Hepatitis B surface antigen; test: Randomized controlled clinical study of AgB/RC-210-04 versus AgB: seroprotection, seroconversion, anti-HBsAg titers; format: in vivo, human; conditions: healthy adults; RC-210-04 added to AgB
tetanus toxoid [5] = conditions: mouse, in vivo
[6] = test system: hepatitis B surface antigen (HBsAg); test: Vaginal wash anti-HBsAg antibody after intranasal HBsAg + AGP-AF; format: in vivo, BALB/c mice; conditions: 10 days after the booster immunization; intranasal HBsAg + 10 μg AGP-AF
Description: Vaginal samples were collected 10 days after the booster immunization and assayed for anti-HBsAg antibody.

[7] = test system: hepatitis B surface antigen (HBsAg); test: Serum anti-HBsAg antibody titers after intranasal HBsAg + AGP-AF (ELISA); format: in vivo, BALB/c mice; conditions: for Anti HBsAg Titer^−1 IgG1 / Anti HBsAg Titer^−1 IgG2a: K = 10^3
ovalbumin = test: Stimulation of antiovalbumin antibody production; format: in vivo, BDF1 female mice; conditions: 50 μg AGP + 50 μg ovalbumin; second immunization day 21; bled 14 days after second injection
Procedure: BDF1 female mice (8 per group) were immunized with 0.2 ml of emulsions containing 50 μg of the AGPs +50 μg of ovalbumin. A second immunization was administered 21 days post primary. Each mouse was bled 14 days after the second injection.

[8] = test system: hepatitis B surface antigen (HBsAg); test: Cytotoxic T-lymphocyte response to HBsAg with AGP in stable emulsion (AGP-SE); conditions: s.c. 2.0 μg HBsAg + 25 μg AGP/SE
tetanus toxoid [9] = conditions: mouse, in vivo, sc
influenza A/HK/68 [10] = test system: influenza A/HK/68; parameters: species or system ICR mice; conditions: mouse, in vivo
influenza A/HK/68 [11] = format: in vivo, BALB/c mice; conditions: mouse, in vivo
[12] = test system: hepatitis B surface antigen (HBsAg); conditions: for % Cytotoxicity (d16, post 2°): HBsAg + 10 μg AGP-AF intranasally; for % Cytotoxicity (d8, post 3°): intranasal HBsAg + 10 μg AGP-AF
E.G7 (OVA) cells = conditions: s.c. 25 μg OVA in AGP preparation, spleen cells 21 days later
[13] = Fever response in rabbits (pyrogenicity); format: in vivo; conditions: 10 ug/kg; cumulative rise ≥1.5 degree in three rabbits is considered pyrogenic
Procedure: The AGP compounds were also evaluated for their tendency to induce a fever response in rabbits. Each compound was formulated in 10% (v/v) ethanol/water solution at 100 mg/ml, then diluted with D5W to the desired concentration. The material was injected at 3 ml/kg body weight into 3 rabbits. The rise in core temperature of the rabbits was recorded.

[14] = day 22 post 2°, HBsAg + 10 μg AGP-AF intranasally
[15] = serum, day 21 post 3°, intranasal HBsAg + 10 μg AGP-AF

2-[(R)-3-Hexanoyloxytetradecanoylamino]ethyl2-Deoxy-4-O-phosphono-3-O-[(R)-3-hexanoyloxytetradecanoyl]-2-[(R)-3-hexanoyloxytetradecanoylamino]-α-D-glucopyranoside Triethylammonium Salt [B31]
Anti-influenza serum titers IgG (influenza A/HK/68 [1]): 3200 | Anti-influenza serum titers IgG1 (influenza A/HK/68 [1]): 1600 | Anti-influenza serum titers IgG2a (influenza A/HK/68 [1]): 400 | Anti-influenza serum titers IgG2b (influenza A/HK/68 [1]): 1600 | Protection (influenza A/HK/68 [1]): 70

2-[(R)-3-Tetradecanoyloxytetradecanoylamino]ethyl 2-Deoxy-4-O-phosphono-3-O-[(R)-3-tetradecanoyoxytetradecanoyl]-2-[(R)-3-tetradecanoyoxytetradecanoylamino]-β-D-glucopyranoside Triethylammonium Salt [B19]
Percent Survival (influenza A/HK/68 [2]): 50% | Titer−1 IgG1 (influenza A/HK/68 [2]): 100 | Titer−1 IgG2a (influenza A/HK/68 [2]): 800 | Titer−1 IgG2b (influenza A/HK/68 [2]): 6400 | Titer−1 Total IgG (influenza A/HK/68 [2]): 12,800 | Anti-HBsAg Titer^−1 HBsAg IgG1 [3]: 1024K | Anti-HBsAg Titer^−1 HBsAg IgG2a [3]: 1024K | Anti-HBsAg Titer^−1 p72-Peptide IgG1 [3]: 64K | Anti-HBsAg Titer^−1 p72-Peptide IgG2a [3]: 128K | antibody responses to Hepatitis B surface antigen (in words) [4]: faster and greater antibody responses | Anti-Tetanus Toxoid Titer^−1 Fecal Extract IgA (tetanus toxoid [5]): 3200 and 6400 | Anti-Tetanus Toxoid Titer^−1 Fecal Extract IgG (tetanus toxoid [5]): 25 | Anti-Tetanus Toxoid Titer^−1 Serum Pools IgG1 (tetanus toxoid [5]): 2M and 4M | Anti-Tetanus Toxoid Titer^−1 Vaginal Wash IgA (tetanus toxoid [5]): 1600 and 3200 | Anti-Tetanus Toxoid Titer^−1 Vaginal Wash IgG (tetanus toxoid [5]): 200 and 400 | Vaginal Wash Anti-HBsAg Titer^−1 IgA [6]: 400 | Vaginal Wash Anti-HBsAg Titer^−1 IgG [6]: <50 | Anti HBsAg Titer^−1 IgA [7, 14]: 1,600 | Anti HBsAg Titer^−1 IgG1 [7, 14]: 500K | Anti HBsAg Titer^−1 IgG2a [7, 14]: 64K | Anti HBsAg Titer^−1 IgG1 [7, 15]: 2000K | Anti HBsAg Titer^−1 IgG2a [7, 15]: 500K | Anti HBsAg Titer^−1 IgA [7, 15]: 12,800

N-[(R)-3-Decanoyloxytetradecanoyl]-O-[2-deoxy-4-O-phosphono-2-[(R)-3-decanoyloxytetradecanoylamino]-3-O-[(R)-3-decanoyloxytetradecanoyl]-β-D-glucopyranosyl]-L-serinamide Triethylammonium Salt [B25]
Anti-HBsAg Titer^−1 HBsAg IgG1 [3]: 2048K* | Anti-HBsAg Titer^−1 HBsAg IgG2a [3]: 2048K | Anti-HBsAg Titer^−1 p72-Peptide IgG1 [3]: 128K | Anti-HBsAg Titer^−1 p72-Peptide IgG2a [3]: 64K | Anti-ovalbumin IgG1 T/C (ovalbumin): 5.2 | Anti-ovalbumin IgG1 Titer (ovalbumin): 8500 | Anti-ovalbumin IgG2a T/C (ovalbumin): 0.5 | Anti-ovalbumin IgG2a Titer (ovalbumin): 163 | Anti-ovalbumin IgG2b T/C (ovalbumin): 5.0 | Anti-ovalbumin IgG2b Titer (ovalbumin): 1188 | Anti-ovalbumin IgM T/C (ovalbumin): 0.8 | Anti-ovalbumin IgM Titer (ovalbumin): 150 | Anti-ovalbumin Total Ig T/C (ovalbumin): 1.9 | Anti-ovalbumin Total Ig Titer (ovalbumin): 438 | % Cytotoxicity ([8]; d16, post 2°, E:T 6.25:1): 13% | % Cytotoxicity ([8]; d16, post 2°, E:T 12.5:1): 20% | % Cytotoxicity ([8]; d16, post 2°, E:T 25:1): 28% | % Cytotoxicity ([8]; d16, post 2°, E:T 50:1): 49% | % Cytotoxicity ([8]; d17, post 1°, E:T 6.25:1): 5% | % Cytotoxicity ([8]; d17, post 1°, E:T 12.5:1): 9% | % Cytotoxicity ([8]; d17, post 1°, E:T 25:1): 12% | % Cytotoxicity ([8]; d17, post 1°, E:T 50:1): 27% | Anti-tetanus toxoid IgG1 T/C (tetanus toxoid [9]): 2.68 | Anti-tetanus toxoid IgG1 Titer (tetanus toxoid [9]): 576,000 | Anti-tetanus toxoid IgG2a T/C (tetanus toxoid [9]): 1.67 | Anti-tetanus toxoid IgG2a Titer (tetanus toxoid [9]): 8,500 | Anti-tetanus toxoid IgG2b T/C (tetanus toxoid [9]): 3.28 | Anti-tetanus toxoid IgG2b Titer (tetanus toxoid [9]): 94,400 | Anti-tetanus toxoid IgM T/C (tetanus toxoid [9]): 2.0 | Anti-tetanus toxoid IgM Titer (tetanus toxoid [9]): 3,200 | Anti-tetanus toxoid Total IgG T/C (tetanus toxoid [9]): 8.93 | Anti-tetanus toxoid Total IgG Titer (tetanus toxoid [9]): 57,600 | Percent Protection (influenza A/HK/68 [10]): 100% | Serum Titers IgG1 (influenza A/HK/68 [10]): 102,400 | Serum Titers IgG2a (influenza A/HK/68 [10]): 819,200 | Serum Titers IgG2b (influenza A/HK/68 [10]): ≧819,200 | Serum Titers Total IgG (influenza A/HK/68 [10]): ≧819,200 | Vaginal Wash Samples IgA Secondary (influenza A/HK/68 [10]): 1280 | Vaginal Wash Samples IgA Tertiary (influenza A/HK/68 [10]): 1280 | Vaginal Wash Samples IgG Secondary (influenza A/HK/68 [10]): 640 | Vaginal Wash Samples IgG Tertiary (influenza A/HK/68 [10]): 2560 | Anti-influenza Titer^−1 IgG1 (influenza A/HK/68 [11]): 1600 | Anti-influenza Titer^−1 IgG2a (influenza A/HK/68 [11]): 6400 | Anti-influenza Titer^−1 IgG2b (influenza A/HK/68 [11]): 1600 | Anti-influenza Titer^−1 Total IgG (influenza A/HK/68 [11]): 3200 | Percent Survival (influenza A/HK/68 [11]): 100% | Anti-Tetanus Toxoid Titer^−1 Fecal Extract IgA (tetanus toxoid [5]): 3200 and 6400 | Anti-Tetanus Toxoid Titer^−1 Vaginal Wash IgA (tetanus toxoid [5]): 6400 | Vaginal Wash Anti-HBsAg Titer^−1 IgA [6]: 800 | Vaginal Wash Anti-HBsAg Titer^−1 IgG [6]: 100 | % Cytotoxicity (d16, post 2°) ([12]; E/T 6.25:1): 9% | % Cytotoxicity (d8, post 3°) ([12]; E/T 6.25:1): 8% | % Cytotoxicity (d16, post 2°) ([12]; E/T 12.5:1): 13% | % Cytotoxicity (d8, post 3°) ([12]; E/T 12.5:1): 13% | % Cytotoxicity (d16, post 2°) ([12]; E/T 25:1): 20% | % Cytotoxicity (d8, post 3°) ([12]; E/T 25:1): 19% | % Cytotoxicity (d16, post 2°) ([12]; E/T 50:1): 36% | % Cytotoxicity (d8, post 3°) ([12]; E/T 50:1): 30% | % Cytotoxicity (E.G7 (OVA) cells; E:T 12.5:1): 43% | % Cytotoxicity (E.G7 (OVA) cells; E:T 25:1): 55% | % Cytotoxicity (E.G7 (OVA) cells; E:T 50:1): 65% | PYROGENICITY Total Rise ° C., 3 rabbits [13]: 4.2 °C | Anti HBsAg Titer^−1 IgA [7, 14]: 3,200 | Anti HBsAg Titer^−1 IgG1 [7, 14]: 256K# | Anti HBsAg Titer^−1 IgG2a [7, 14]: 500K | Anti HBsAg Titer^−1 IgG1 [7, 15]: 1000K# | Anti HBsAg Titer^−1 IgG2a [7, 15]: 1000K | Anti HBsAg Titer^−1 IgA [7, 15]: 25,600
